Measured values as given in patent publication US20250195551A1 (L4 BIO LLC, priority 2023, published 2025).

Columns and labels:
[1] = target: neuronal alpha-7-nicotinic receptor (Homo sapiens, UniProt P36544); settings: interaction with neuronal alpha-7-nicotinic receptor in humans; cited from earlier work
[2] = target: 7-aminobutyric acid A (GABAA) receptor; settings: interaction with GABAA receptor in humans; cited from earlier work
glycine receptor (GlyR) = settings: interaction with glycine receptor (GlyR) in humans; cited from earlier work
[3] = Excipient compatibility study; type: physicochemical; settings: for Chromatographic purity by HPLC (Assay) / Total Impurities % (excluding API impurities %): 40° C./75% RH
Method: An excipient compatibility study was initiated with selected excipients ranging from oils to surfactants based on equilibrium solubility results (Table 2). […] After solutions were prepared using a hand-held homogenizer (Model IKAT10 Ultra-Turrax), each excipient sample was aliquoted in amber vials, approximately 10% water was added in each excipient aliquot, and bench scale gel stripe OET-004037 was also made and added in a separate set of aliquot samples at approximately 1:1 w/w.
All samples were stored at 40° C./75% relative humidity (RH) condition (Model: Lunaire environmental chamber) and tested by developmental reversed phase HPLC method for Assay/Related Substances at T=0, 2 weeks, and 1 month.

[4] = target: T1, purinergic P2X4 receptors (Homo sapiens, UniProt Q99571); settings: interaction with purinergic P2X4 receptors in humans; cited from earlier work
T1 sequence (Q99571 1-388): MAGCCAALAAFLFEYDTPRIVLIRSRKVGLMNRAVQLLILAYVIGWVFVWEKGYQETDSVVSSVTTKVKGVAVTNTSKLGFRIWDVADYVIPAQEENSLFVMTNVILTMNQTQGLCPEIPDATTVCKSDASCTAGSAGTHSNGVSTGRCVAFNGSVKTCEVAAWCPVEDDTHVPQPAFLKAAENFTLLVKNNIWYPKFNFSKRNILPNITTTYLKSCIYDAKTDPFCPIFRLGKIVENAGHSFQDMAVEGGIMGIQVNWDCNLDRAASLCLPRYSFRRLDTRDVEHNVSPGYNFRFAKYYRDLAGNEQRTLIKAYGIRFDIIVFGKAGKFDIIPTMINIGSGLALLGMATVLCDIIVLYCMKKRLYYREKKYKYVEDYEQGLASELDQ

[5] = Pharmacokinetic profiles of Ivermectin B1a in Sprague Dawley rat plasma after IV and oral administration; type: in vivo, Sprague Dawley rats; settings: Ivermectin B1a in SD rat plasma; single IV 2 mg/kg; fasting; male
Method: Thirty-six male Sprague Dawley rats were randomly assigned into four groups, with nine male rats in each group. All animals in all groups are fasted overnight prior to the experimental date.
Blood samples were collected from 6 of 9 animals per group at 0.5, 1, 2, 3, 4, 6, 8, 24, 72, 120, 168 hours post-dose.

[6] = in Fractionated coconut oil, Sample: 10% water, T = 2 weeks
[7] = in Fractionated coconut oil, Sample: Control, T = 0
[8] = in Fractionated coconut oil, Sample: Control, T = 2 weeks
[9] = in Fractionated coconut oil, Sample: Gel Stripe (1:1 w/w), T = 2 weeks
[10] = in Labrasol ALF, Sample: 10% water, T = 1 months
[11] = in Labrasol ALF, Sample: 10% water, T = 2 weeks
[12] = in Labrasol ALF, Sample: Control, T = 0
[13] = in Labrasol ALF, Sample: Control, T = 1 months
[14] = in Labrasol ALF, Sample: Control, T = 2 weeks
[15] = in Labrasol ALF, Sample: Gel Stripe (1:1 w/w), T = 1 months
[16] = in Labrasol ALF, Sample: Gel Stripe (1:1 w/w), T = 2 weeks
[17] = in Maisine CC, Sample: 10% water, T = 1 months
[18] = in Maisine CC, Sample: 10% water, T = 2 weeks
[19] = in Maisine CC, Sample: Control, T = 0
[20] = in Maisine CC, Sample: Control, T = 1 months
[21] = in Maisine CC, Sample: Control, T = 2 weeks
[22] = in Maisine CC, Sample: Gel Stripe (1:1 w/w), T = 1 months
[23] = in Maisine CC, Sample: Gel Stripe (1:1 w/w), T = 2 weeks
[24] = in Masester E8120, Sample: 10% water, T = 1 months
[25] = in Masester E8120, Sample: 10% water, T = 2 weeks
[26] = in Masester E8120, Sample: Control, T = 0
[27] = in Masester E8120, Sample: Control, T = 1 months
[28] = in Masester E8120, Sample: Control, T = 2 weeks
[29] = in Masester E8120, Sample: Gel Stripe (1:1 w/w), T = 1 months
[30] = in Masester E8120, Sample: Gel Stripe (1:1 w/w), T = 2 weeks
[31] = in Oleic acid, Sample: 10% water, T = 2 weeks
[32] = in Oleic acid, Sample: Control, T = 0
[33] = in Oleic acid, Sample: Control, T = 2 weeks
[34] = in Oleic acid, Sample: Gel Stripe (1:1 w/w), T = 2 weeks
[35] = in PEG 400, Sample: 10% water, T = 2 weeks
[36] = in PEG 400, Sample: Control, T = 0
[37] = in PEG 400, Sample: Control, T = 2 weeks
[38] = in PEG 400, Sample: Gel Stripe (1:1 w/w), T = 2 weeks
[39] = in Tween 80, Sample: 10% water, T = 1 months
[40] = in Tween 80, Sample: 10% water, T = 2 weeks
[41] = in Tween 80, Sample: Control, T = 0
[42] = in Tween 80, Sample: Control, T = 1 months
[43] = in Tween 80, Sample: Control, T = 2 weeks
[44] = in Tween 80, Sample: Gel Stripe (1:1 w/w), T = 1 months
[45] = in Tween 80, Sample: Gel Stripe (1:1 w/w), T = 2 weeks
[46] = in Vitamin E TPGS, Sample: 10% water, T = 1 months
[47] = in Vitamin E TPGS, Sample: 10% water, T = 2 weeks
[48] = in Vitamin E TPGS, Sample: Control, T = 0
[49] = in Vitamin E TPGS, Sample: Control, T = 1 months
[50] = in Vitamin E TPGS, Sample: Control, T = 2 weeks
[51] = in Vitamin E TPGS, Sample: Gel Stripe (1:1 w/w), T = 1 months
[52] = in Vitamin E TPGS, Sample: Gel Stripe (1:1 w/w), T = 2 weeks

neuronal alpha-7-nicotinic receptor, sequence (P36544 23-502): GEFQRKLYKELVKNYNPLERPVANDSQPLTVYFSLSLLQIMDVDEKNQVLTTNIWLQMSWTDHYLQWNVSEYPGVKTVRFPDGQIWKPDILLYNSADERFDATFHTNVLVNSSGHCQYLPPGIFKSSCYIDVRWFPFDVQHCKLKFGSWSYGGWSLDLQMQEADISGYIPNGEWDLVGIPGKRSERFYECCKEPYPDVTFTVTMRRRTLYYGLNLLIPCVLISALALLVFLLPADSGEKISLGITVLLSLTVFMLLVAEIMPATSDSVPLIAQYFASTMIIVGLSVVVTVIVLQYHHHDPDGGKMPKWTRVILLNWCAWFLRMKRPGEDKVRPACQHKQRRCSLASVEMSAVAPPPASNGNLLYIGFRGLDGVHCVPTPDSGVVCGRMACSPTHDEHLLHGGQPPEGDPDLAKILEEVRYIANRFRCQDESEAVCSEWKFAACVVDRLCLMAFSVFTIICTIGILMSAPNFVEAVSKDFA

Substance: ivermectin
- EC50 [1]: ~30000 nM
- EC50 [2]: ~920 nM
- EC50 (glycine receptor (GlyR)): ~1200 nM
- Chemical compatibility with the API ([3]; PEG 400 as co-solvent): poor chemical compatibility
- Chemical compatibility with the API ([3]; Vitamin E TPGS compared with Tween 80 and Labrasol ALF (surfactants)): best chemical compatibility
- Chromatographic purity by HPLC (Assay) [3, 6]: 97.83 % area
- Total Impurities % (excluding API impurities %) [3, 6]: <LOQ
- Chromatographic purity by HPLC (Assay) [3, 7]: 95.61 % area
- Total Impurities % (excluding API impurities %) [3, 7]: <LOQ
- Chromatographic purity by HPLC (Assay) [3, 8]: 97.94 % area
- Total Impurities % (excluding API impurities %) [3, 8]: <LOQ
- Chromatographic purity by HPLC (Assay) [3, 9]: 94.42 % area
- Total Impurities % (excluding API impurities %) [3, 9]: 3.28 % adjusted area
- Chromatographic purity by HPLC (Assay) [3, 10]: 89.91 % area
- Total Impurities % (excluding API impurities %) [3, 10]: 8.76 % adjusted area
- Chromatographic purity by HPLC (Assay) [3, 11]: 93.91 % area
- Total Impurities % (excluding API impurities %) [3, 11]: 3.46 % adjusted area
- Chromatographic purity by HPLC (Assay) [3, 12]: 97.74 % area
- Total Impurities % (excluding API impurities %) [3, 12]: <LOQ
- Chromatographic purity by HPLC (Assay) [3, 13]: 81.35 % area
- Total Impurities % (excluding API impurities %) [3, 13]: 20.49 % adjusted area
- Chromatographic purity by HPLC (Assay) [3, 14]: 89.16 % area
- Total Impurities % (excluding API impurities %) [3, 14]: 8.67 % adjusted area
- Chromatographic purity by HPLC (Assay) [3, 15]: 96.49 % area
- Total Impurities % (excluding API impurities %) [3, 15]: 1.06 % adjusted area
- Chromatographic purity by HPLC (Assay) [3, 16]: 97.11 % area
- Total Impurities % (excluding API impurities %) [3, 16]: 0.30 % adjusted area
- Chromatographic purity by HPLC (Assay) [3, 17]: 96.83 % area
- Total Impurities % (excluding API impurities %) [3, 17]: 0.69 % adjusted area
- Chromatographic purity by HPLC (Assay) [3, 18]: 95.90 % area
- Total Impurities % (excluding API impurities %) [3, 18]: 0.45 % adjusted area
- Chromatographic purity by HPLC (Assay) [3, 19]: 97.13 % area
- Total Impurities % (excluding API impurities %) [3, 19]: 0.58 % adjusted area
- Chromatographic purity by HPLC (Assay) [3, 20]: 96.82 % area
- Total Impurities % (excluding API impurities %) [3, 20]: 0.71 % adjusted area
- Chromatographic purity by HPLC (Assay) [3, 21]: 96.00 % area
- Total Impurities % (excluding API impurities %) [3, 21]: 0.35 % adjusted area
- Chromatographic purity by HPLC (Assay) [3, 22]: 96.94 % area
- Total Impurities % (excluding API impurities %) [3, 22]: 0.58 % adjusted area
- Chromatographic purity by HPLC (Assay) [3, 23]: 96.15 % area
- Total Impurities % (excluding API impurities %) [3, 23]: 0.33 % adjusted area
- Chromatographic purity by HPLC (Assay) [3, 24]: 91.68 % area
- Total Impurities % (excluding API impurities %) [3, 24]: 6.60 % adjusted area
- Chromatographic purity by HPLC (Assay) [3, 25]: 95.11 % area
- Total Impurities % (excluding API impurities %) [3, 25]: 2.27 % adjusted area
- Chromatographic purity by HPLC (Assay) [3, 26]: 97.58 % area
- Total Impurities % (excluding API impurities %) [3, 26]: 0.17 % adjusted area
- Chromatographic purity by HPLC (Assay) [3, 27]: 97.06 % area
- Total Impurities % (excluding API impurities %) [3, 27]: 0.45 % adjusted area
- Chromatographic purity by HPLC (Assay) [3, 28]: 96.81 % area
- Total Impurities % (excluding API impurities %) [3, 28]: 0.58 % adjusted area
- Chromatographic purity by HPLC (Assay) [3, 29]: 97.31 % area
- Total Impurities % (excluding API impurities %) [3, 29]: 0.18 % adjusted area
- Chromatographic purity by HPLC (Assay) [3, 30]: 97.35 % area
- Total Impurities % (excluding API impurities %) [3, 30]: 0.11 % adjusted area
- Chromatographic purity by HPLC (Assay) [3, 31]: 86.02 % area
- Total Impurities % (excluding API impurities %) [3, 31]: 9.89 % adjusted area
- Chromatographic purity by HPLC (Assay) [3, 32]: 99.60 % area
- Total Impurities % (excluding API impurities %) [3, 32]: <LOQ
- Chromatographic purity by HPLC (Assay) [3, 33]: 83.55 % area
- Total Impurities % (excluding API impurities %) [3, 33]: 17.27 % adjusted area
- Chromatographic purity by HPLC (Assay) [3, 34]: 83.73 % area
- Total Impurities % (excluding API impurities %) [3, 34]: 11.82 % adjusted area
- Chromatographic purity by HPLC (Assay) [3, 35]: 94.35 % area
- Total Impurities % (excluding API impurities %) [3, 35]: 3.15 % adjusted area
- Chromatographic purity by HPLC (Assay) [3, 36]: 97.58 % area
- Total Impurities % (excluding API impurities %) [3, 36]: 0.10 % adjusted area
- Chromatographic purity by HPLC (Assay) [3, 37]: 89.36 % area
- Total Impurities % (excluding API impurities %) [3, 37]: 8.54 % adjusted area
- Chromatographic purity by HPLC (Assay) [3, 38]: 96.92 % area
- Total Impurities % (excluding API impurities %) [3, 38]: 0.50 % adjusted area
- Chromatographic purity by HPLC (Assay) [3, 39]: 91.18 % area
- Total Impurities % (excluding API impurities %) [3, 39]: 6.94 % adjusted area
- Chromatographic purity by HPLC (Assay) [3, 40]: 93.02 % area
- Total Impurities % (excluding API impurities %) [3, 40]: 3.53 % adjusted area
- Chromatographic purity by HPLC (Assay) [3, 41]: 97.53 % area
- Total Impurities % (excluding API impurities %) [3, 41]: 0.16 % adjusted area
- Chromatographic purity by HPLC (Assay) [3, 42]: 88.45 % area
- Total Impurities % (excluding API impurities %) [3, 42]: 10.55 % adjusted area
- Chromatographic purity by HPLC (Assay) [3, 43]: 91.87 % area
- Total Impurities % (excluding API impurities %) [3, 43]: 4.86 % adjusted area
- Chromatographic purity by HPLC (Assay) [3, 44]: 93.51 % area
- Total Impurities % (excluding API impurities %) [3, 44]: 4.22 % adjusted area
- Chromatographic purity by HPLC (Assay) [3, 45]: 93.97 % area
- Total Impurities % (excluding API impurities %) [3, 45]: 2.43 % adjusted area
- Chromatographic purity by HPLC (Assay) [3, 46]: 97.46 % area
- Total Impurities % (excluding API impurities %) [3, 46]: <LOQ
- Chromatographic purity by HPLC (Assay) [3, 47]: 96.99 % area
- Total Impurities % (excluding API impurities %) [3, 47]: 0.42 % adjusted area
- Chromatographic purity by HPLC (Assay) [3, 48]: 97.74 % area
- Total Impurities % (excluding API impurities %) [3, 48]: <LOQ
- Chromatographic purity by HPLC (Assay) [3, 49]: 97.37 % area
- Total Impurities % (excluding API impurities %) [3, 49]: 0.11 % adjusted area
- Chromatographic purity by HPLC (Assay) [3, 50]: 97.43 % area
- Total Impurities % (excluding API impurities %) [3, 50]: <LOQ
- Chromatographic purity by HPLC (Assay) [3, 51]: 97.74 % area
- Total Impurities % (excluding API impurities %) [3, 51]: <LOQ
- Chromatographic purity by HPLC (Assay) [3, 52]: 97.50 % area
- Total Impurities % (excluding API impurities %) [3, 52]: <LOQ
- Chemical compatibility with the API ([3]; oily vehicles including Maisine CC, fractionated coconut oil, and oleic acid): good chemical compatibility
- EC50 [4]: ~250 nM
- AUC(0-t) [5]: 8259.31 ± 1032.95 ng·h/mL
- AUC(0-∞) [5]: 8273.53 ng·h/mL
- Cmax [5]: 1722.67 ng/mL
- MRT(0-t) [5]: 10.58 h
- MRT(0-∞) [5]: 10.81 h
- T1/2 [5]: 14.82 ± 0.72 h
- Tmax [5]: 0.50 h
